Where a name gives a salt, the structure may show the parent alone. Marks after values point to notes of the source that are not given here. Where a SMILES comes first, the peptide text is derived from it. [ ]: non-standard residue; d: D form. dTrp(1-Me) = Cn1cc(C[C@@H](N)C(=O)O)c2ccccc21
Columns and labels:
[1] = pharmacokinetic testing of indoximod prodrug salts in solid capsule formulation in rats; type: in vivo; details: rats; for increase in indoximod AUC versus equivalent molar dose of indoximod / increase in indoximod Cmax versus equivalent molar dose of indoximod: dose not given (Tables 10.2, 10.3); for % Change Cmax / % Change in AUC: vs indoximod free base, oral capsules
Protocol: These blends were formulated so that each capsule contained the same molar dose of each prodrug. […] The composition and uniformity of a representative sample of capsules from each batch was verified by weight and by LC-MS/MS to determine the average indoximod or prodrug content.
(§1) Rats were fasted 16 h prior to dosing to eliminate any confounding food effects, and food was returned 2 h after dosing.

[2] = solubility of indoximod and its salts in water, buffers and SGF; type: physicochemical; details: 25° C.; for pH of the SGF solution (in brackets): SGF solubility test; for pH of the water solution (in brackets): water solubility test
[3] = pharmacokinetic testing of indoximod prodrugs in liquid formulation in mice; details: mice; for change in indoximod Cmax versus indoximod in suspension: oral, all doses tested (10, 50 and 100 mg/kg)
Protocol: Blood samples (0.1-0.2 mL) were collected from the femoral artery port from rats or by retro-orbital bleeding from mice and plasma was immediately collected by centrifugation and stored on dry ice to avoid prodrug hydrolysis after plasma collection. […] The pharmacokinetic parameters reflect the average of individual parameter values obtained from each individual rat (n) or one common parameter from a single pharmacokinetic curve derived from blood samples obtained from a group of mice (n).

[4] = hygroscopicity and stability of indoximod and its salts; type: physicochemical; details: Table 2, in % (unit assumed)
[5] = pharmacokinetic testing of indoximod salts in capsule formulation in rats; type: in vivo; details: capsules
Protocol: Three dose levels were investigated: 37, 185 or 500 μmol/kg.
Capsules were manually filled and the composition uniformity of a representative sample of capsules from each batch was verified by weight and by LC-MS/MS to determine the average indoximod content.
as §1

[6] = Table 10.3, dose 37 μmol/kg, salt form free base
[7] = Table 10.1, dose 37 μmol/kg, salt form free base
[8] = Table 10.2, dose 37 μmol/kg, salt form HCl
[9] = Table 10.2, dose 185 μmol/kg, salt form H3PO4
[10] = Table 10.2, dose 185 μmol/kg, salt form HCl
[11] = listed as Mesylate, methanesulfonate
[12] = 37 μmol/kg, listed as Indoximod phosphate, phosphate
[13] = 185 μmol/kg, listed as Indoximod phosphate, phosphate
[14] = 500 μmol/kg, listed as Indoximod phosphate, phosphate

SMILES: Cn1cc(C[C@@H](NC(=O)CN)C(=O)O)c2ccccc21 [Cpd 05, N^α-(L-glycyl)-1-methyl-D-tryptophan] (H-Gly-[dTrp(1-Me)]-OH)
- increase in indoximod AUC versus equivalent molar dose of indoximod ([1]; capsules): minor and non-statistically significant variations
- increase in indoximod Cmax versus equivalent molar dose of indoximod ([1]; capsules): minor and non-statistically significant variations

SMILES: CS(=O)(=O)O.Cn1cc(C[C@@H](N)C(=O)O)c2ccccc21.Cn1cc(C[C@@H](N)C(=O)O)c2ccccc21 [Hemi-Mesylate]
- Solubility (25° C., mg/mL) SGF [2]: 6.0 mg/mL
- pH of the SGF solution (in brackets) [2]: 1.84
- Solubility (25° C., mg/mL) Water [2]: 5.5 mg/mL
- pH of the water solution (in brackets) [2]: 2.34

SMILES: Cn1cc(C[C@@H](N)C(=O)OCC(O)CO)c2ccccc21 (stereo partly drawn) [NLG-1558, 2,3-dihydroxypropyl 1-methyl-D-tryptophanate hydrochloride]
- increase in indoximod AUC versus equivalent molar dose of indoximod ([1]; capsules, hydrochloride): less significant increases
- increase in indoximod Cmax versus equivalent molar dose of indoximod ([1]; capsules, hydrochloride): less significant increases

SMILES: CCOC(=O)[C@@H](Cc1cn(C)c2ccccc12)NC(=O)[C@@H](N)CC(C)C.Cl [NLG-1564, ethyl N^α-(L-leucyl)-1-methyl-D-tryptophanate hydrochloride]
- change in indoximod AUC compared to indoximod ([1]; capsules, 500 μmol/kg): minor increase
- change in indoximod Cmax compared to indoximod ([1]; capsules, 500 μmol/kg): minor increase
- increase in indoximod Cmax versus indoximod ([1]; capsules, 37-185 μmol/kg): significant increases

SMILES: CCOC(=O)[C@@H](Cc1cn(C)c2ccccc12)NC(=O)C[C@H](N)C(=O)OC.Cl [NLG-1585, methyl N^4-((R)-1-ethoxy-3-(1-methyl-1H-indol-3-yl)-1-oxopropan-2-yl)-L-asparaginate hydrochloride]
- increase in indoximod AUC versus equivalent molar dose of indoximod ([1]; capsules): minor and non-statistically significant variations
- increase in indoximod Cmax versus equivalent molar dose of indoximod ([1]; capsules): minor and non-statistically significant variations

SMILES: Cn1cc(C[C@@H](N)C(=O)OCC(O)CO)c2ccccc21.O=P(O)(O)O (stereo partly drawn) [NLG-1626, (2R)-1-(2,3-dihydroxypropoxy)-3-(1-methyl-1H-indol-3-yl)-1-oxopropan-2-dihydrogen phosphate]
- change in indoximod AUC versus indoximod ([3]; oral, 10, 50 and 100 mg/kg, percentage of increase decreases at higher doses): dose dependent increase
- change in indoximod Cmax versus indoximod in suspension [3]: significant increase

SMILES: Cn1cc(C[C@@H](N)C(=O)OCC(O)CO)c2ccccc21 (stereo partly drawn) [NLG-1627, (2R)-1-(2,3-dihydroxypropoxy)-3-(1-methyl-1H-indol-3-yl)-1-oxopropan-2-aminium methanesulfonate]
- increase in indoximod AUC versus equivalent molar dose of indoximod ([1]; capsules, methanesulfonate): decrease
- increase in indoximod Cmax versus equivalent molar dose of indoximod ([1]; capsules, methanesulfonate): decrease

SMILES: Cn1cc(C[C@@H](N)C(=O)OCC(O)CO)c2ccccc21 (stereo partly drawn) [NLG-1628, (2R)-1-(2,3-dihydroxypropoxy)-3-(1-methyl-1H-indol-3-yl)-1-oxopropan-2-aminium sulfate]
- increase in indoximod AUC versus equivalent molar dose of indoximod ([1]; capsules): less significant increases
- increase in indoximod Cmax versus equivalent molar dose of indoximod ([1]; capsules): less significant increases

SMILES: CCOC(=O)[C@@H](Cc1cn(C)c2ccccc12)NC(=O)[C@@H](N)CC(C)C.O=P(O)(O)O [NLG-1665]
- change in indoximod Cmax versus indoximod in suspension [3]: significant increase
- increase in indoximod Cmax versus indoximod ([1]; capsules, 37-185 μmol/kg): significant increases

SMILES: CCOC(=O)[C@@H](Cc1cn(C)c2ccccc12)NC(=O)[C@@H](N)CC(C)C [NLG-1666, (S)-1-(((R)-1-ethoxy-3-(1-methyl-1H-indol-3-yl)-1-oxopropan-2-yl)amino)-4-methyl-1-oxopentan-2-aminium methanesulfonate]
- increase in indoximod Cmax versus indoximod ([1]; capsules, 37-185 μmol/kg, methanesulfonate): significant increases

SMILES: CCOC(=O)[C@@H](Cc1cn(C)c2ccccc12)NC(=O)[C@@H](N)CCC(N)=O [NLG-1672] (H-Gln-[dTrp(1-Me)]-OEt)
- % Change Cmax [1, 6]: 5%
- % Change in AUC [1, 6]: −16%

SMILES: Cn1cc(C[C@@H](NC(=O)[C@@H](N)CCCCN)C(=O)O)c2ccccc21 [NLG-1676] (H-Lys-[dTrp(1-Me)]-OH)
- % Change Cmax [1, 7]: −17%
- % Change in AUC [1, 7]: −13%

SMILES: CCOC(=O)[C@@H](Cc1cn(C)c2ccccc12)NC(=O)[C@@H](N)CC(C)C [NLG-1691, ethyl N^α-((S)-2-(λ^4-azanyl)-4-methylpentanoyl)-1-methyl-D-tryptophanate sulfate]
- increase in exposure (AUC) of indoximod versus indoximod ([1]; capsules, 37-185 μmol/kg): did not result in a significant increase
- increase in indoximod Cmax versus indoximod ([1]; capsules, 37-185 μmol/kg): did not result in a significant increase

SMILES: CCOC(=O)[C@@H](Cc1cn(C)c2ccccc12)NC(=O)[C@@H](N)CCSC [NLG-3272, ethyl N^α-(L-methionyl)-1-methyl-D-tryptophanate] (H-Met-[dTrp(1-Me)]-OEt)
- change in indoximod AUC versus indoximod ([1]; capsules, 37-500 μmol/kg): statistically significant increase
- change in indoximod Cmax versus indoximod ([1]; capsules, 37-500 μmol/kg): statistically significant increase

SMILES: CSCC[C@H](N)C(=O)N[C@H](Cc1cn(C)c2ccccc12)C(=O)O [NLG-3380] (H-Met-[dTrp(1-Me)]-OH)
- % Change Cmax [1, 8]: 16%
- % Change in AUC [1, 8]: 24%
- % Change Cmax [1, 9]: 118%
- % Change in AUC [1, 9]: 66%
- % Change Cmax [1, 10]: 345%
- % Change in AUC [1, 10]: 181%

SMILES: Cn1cc(C[C@@H](NC(=O)[C@@H](N)CCCCN)C(=O)O)c2ccccc21 [N^α-(L-lysyl)-1-methyl-D-tryptophan] (H-Lys-[dTrp(1-Me)]-OH)
- increase in indoximod AUC versus equivalent molar dose of indoximod ([1]; capsules): minor and non-statistically significant variations
- increase in indoximod Cmax versus equivalent molar dose of indoximod ([1]; capsules): minor and non-statistically significant variations

SMILES: O=S(=O)(O)O [Sulfate]
- Hygroscopicity (0-80% RH) [4]: 3.4

SMILES: CCOC(=O)[C@@H](Cc1cn(C)c2ccccc12)NC(=O)[C@@H](N)CCC(N)=O [ethyl N^α-(L-glutaminyl)-1-methyl-D-tryptophanate] (H-Gln-[dTrp(1-Me)]-OEt)
- increase in indoximod AUC versus equivalent molar dose of indoximod ([1]; capsules): minor and non-statistically significant variations
- increase in indoximod Cmax versus equivalent molar dose of indoximod ([1]; capsules): minor and non-statistically significant variations

SMILES: Cn1cc(C[C@@H](N)C(=O)O)c2ccccc21 [indoximod CH3SO3H, (R)-1-carboxy-2-(1-methyl-1H-indol-3-yl)ethan-1-aminium methanesulfonate]
- % Increase over indoximod Free Base (AUC) ([5]; 37 μmol/kg, methanesulfonate): 38%
- % Increase over indoximod Free Base (Cmax) ([5]; 37 μmol/kg, methanesulfonate): 28%
- AUC(0 −> ∞) ([5]; 37 μmol/kg, methanesulfonate): 537 ± 194 µM·h
- Cmax ([5]; 37 μmol/kg, methanesulfonate): 20.3 ± 2 µM
- Hygroscopicity (0-80% RH) [4, 11]: 0.12*
- pH of the SGF solution (in brackets) [2, 11]: 1.43
- Solubility (25° C., mg/mL) SGF [2, 11]: 6.0 mg/mL
- pH of the water solution (in brackets) [2, 11]: 1.84
- Solubility (25° C., mg/mL) Water [2, 11]: 5.1 mg/mL

SMILES: Cn1cc(C[C@@H](N)C(=O)O)c2ccccc21 [indoximod H2SO4, (R)-1-carboxy-2-(1-methyl-1H-indol-3-yl)ethan-1-aminium hydrogen sulfate]
- % Increase over indoximod Free Base (AUC) ([5]; 37 μmol/kg, hydrogen sulfate): 42%
- % Increase over indoximod Free Base (Cmax) ([5]; 37 μmol/kg, hydrogen sulfate): 42%
- AUC(0 −> ∞) ([5]; 37 μmol/kg, hydrogen sulfate): 553 ± 196 µM·h
- Cmax ([5]; 37 μmol/kg, hydrogen sulfate): 22.6 ± 7 µM

SMILES: Cn1cc(C[C@@H](N)C(=O)O)c2ccccc21 [indoximod H3PO4, (R)-1-carboxy-2-(1-methyl-1H-indol-3-yl)ethan-1-aminium dihydrogen phosphate]
- % Increase over indoximod Free Base (AUC) [5, 12]: significant increase
- % Increase over indoximod Free Base (Cmax) [5, 12]: significant increase
- % Increase over indoximod Free Base (AUC) ([5]; 37 μmol/kg, phosphate): 43%
- % Increase over indoximod Free Base (Cmax) ([5]; 37 μmol/kg, phosphate): 40%
- AUC(0 −> ∞) ([5]; 37 μmol/kg, phosphate): 558 ± 185 µM·h
- Cmax ([5]; 37 μmol/kg, phosphate): 22.3 ± 9 µM
- % Increase over indoximod Free Base (AUC) [5, 13]: significant increase
- % Increase over indoximod Free Base (Cmax) [5, 13]: significant increase
- % Increase over indoximod Free Base (AUC) ([5]; 185 μmol/kg, phosphate): 34%
- % Increase over indoximod Free Base (Cmax) ([5]; 185 μmol/kg, phosphate): 96%
- AUC(0 −> ∞) ([5]; 185 μmol/kg, phosphate): 1446 ± 645 µM·h
- Cmax ([5]; 185 μmol/kg, phosphate): 40.9 ± 5 µM
- % Increase over indoximod Free Base (AUC) [5, 14]: non-statistically significant decrease
- % Increase over indoximod Free Base (Cmax) [5, 14]: significant decrease
- % Increase over indoximod Free Base (AUC) ([5]; 500 μmol/kg, phosphate): −34%
- % Increase over indoximod Free Base (Cmax) ([5]; 500 μmol/kg, phosphate): −51%
- AUC(0 −> ∞) ([5]; 500 μmol/kg, phosphate): 1902 ± 1288 µM·h
- Cmax ([5]; 500 μmol/kg, phosphate): 37.2 ± 10 µM
- Hygroscopicity (0-80% RH) ([4]; phosphate): 1.7
- Solubility (25° C., mg/mL) SGF ([2]; phosphate): 9.83 (NA) mg/mL
- Solubility (25° C., mg/mL) Water ([2]; phosphate): 8.32 (NA) mg/mL

From patent US20190248739A1 (NEWLINK GENETICS CORPORATION, priority 2015, published 2019)
